Measurements published in US20120108557A1, “FLUOROQUINOLONE DERIVATIVES FOR OPHTHALMIC APPLICATIONS” (ALCON RESEARCH, LTD., priority 2008, published 2012).

Key:
Type in all cases: cell-based
[1] = test system: microorganisms; experiment: In vitro antimicrobial activity test, whole panel of test organisms; settings: across the test organisms of TABLE 3
Method: (§1) The activity of the compounds of the present invention was evaluated using an in vitro assay. Microorganisms were prepared from growth on agar media, in broth culture, or from thawed cryopreserved cultures. Fungal cultures were filtered to remove mycelial elements.
(§2) Using Mueller Hinton II Broth, 0.9% saline or other appropriate media, a suspension of each culture was prepared and adjusted to a turbidity equivalent to that of a 0.5 McFarland Standard. (Cultures adjusted to the 0.5 McFarland Standard generally contain approximately 1.0×10^8 CFU/mL). The adjusted suspension for each culture was diluted 1:10 in the appropriate media so that the inoculum concentration approximates 1.0×10^7 CFU/mL.
(§3) The antimicrobial agent to be tested was weighed and diluted with a volume of sterile distilled water calculated to yield the necessary starting concentration. Serial 1:2 dilutions of the antimicrobial agent in sterile distilled water were prepared (approximately 10-12 test concentrations comprise a reasonable experimental range). A known amount of each antimicrobial dilution was combined with an aliquot of agar medium calculated to yield the desired final antimicrobial test concentration and dispensed onto plates.
(§4) The amount of antimicrobial agent to be weighed was determined using the following equation: […]
(§5) Antimicrobial stock solutions were prepared at concentrations 5-10 times the highest concentration to be tested (routinely 1024 μg/mL). […] The stock solution was diluted to appropriate concentration using sterile water to form a working solution. The working solution was diluted two-fold, in sterile water, until the desired concentration is obtained.
Mueller Hinton II agar was prepared as described by the manufacturer. Mueller Hinton II agar may be supplemented with 5% defibrinated sheep blood for testing streptococci. Agar was added to the serially diluted antimicrobial solution in each container. The solutions were mixed thoroughly and poured into petri dishes (about 25 mL/plate). The pH of the agar at 25° C. should be between 7.2 and 7.4. […]

[2] = test system: Acinetobacter baumannii; experiment: In vitro antimicrobial activity, agar dilution MIC; settings: test organism 26, Acinetobacter baumannii
Method: as §1, §2, §3, §4, §5
(§6) Mueller Hinton II agar was prepared as described by the manufacturer. Mueller Hinton II agar may be supplemented with 5% defibrinated sheep blood for testing streptococci. Agar was added to the serially diluted antimicrobial solution in each container. The solutions were mixed thoroughly and poured into petri dishes (about 25 mL/plate). The pH of the agar at 25° C. should be between 7.2 and 7.4.
(§7) At least one inocula control plate was inoculated (agar medium without antimicrobial agent) from each seed plate before inoculating test plates. Test plates were inoculated starting at the lowest concentration and proceeding to the highest concentration. After all test plates were inoculated, an additional control plate (agar medium without antimicrobial agent) was inoculated. The plates were incubated in a non-CO2 incubator (or CO2 incubator depending on growth requirements); 18-24 hours at 32-35° C. was sufficient for most organisms.
(§8) All inoculation points on the agar surface were examined for the presence of growth as compared to the inoculum control plates. The results were summarized and use to determine Minimal Inhibitory Concentrations (MICs): The MIC is the lowest concentration of the antimicrobial agent which prevents visible growth of the organism (negative score).

[3] = test system: Acinetobacter junii; experiment: In vitro antimicrobial activity, agar dilution MIC
Method: as §1, §2, §3, §4, §5, §6, §7, §8

[4] = test system: Corynebacterium amycolatum; experiment: In vitro antimicrobial activity, agar dilution MIC
Method: as §1, §2, §3, §4, §5, §6, §7, §8

[5] = test system: Enterobacter hormaechei; experiment: In vitro antimicrobial activity, agar dilution MIC; settings: test organism 31, Enterobacter hormaechei
Method: as §1, §2, §3, §4, §5, §6, §7, §8

[6] = test system: Enterococcus faecalis; experiment: In vitro antimicrobial activity, agar dilution MIC
Method: as §1, §2, §3, §4, §5, §6, §7, §8

[7] = test system: Escherichia coli; experiment: In vitro antimicrobial activity, agar dilution MIC
Method: as §1, §2, §3, §4, §5, §6, §7, §8

[8] = test system: MRSA; experiment: In vitro antimicrobial activity, agar dilution MIC
Method: as §1, §2, §3, §4, §5, §6, §7, §8

[9] = test system: MRSE; experiment: In vitro antimicrobial activity, agar dilution MIC
Method: as §1, §2, §3, §4, §5, §6, §7, §8

[10] = test system: MSSA; experiment: In vitro antimicrobial activity, agar dilution MIC; settings: test organism 6, MSSA
Method: as §1, §2, §3, §4, §5, §6, §7, §8

[11] = test system: Morganella morganii; experiment: In vitro antimicrobial activity, agar dilution MIC
Method: as §1, §2, §3, §4, §5, §6, §7, §8

[12] = test system: Pseudomonas aeruginosa; experiment: In vitro antimicrobial activity, agar dilution MIC
Method: as §1, §2, §3, §4, §5, §6, §7, §8

[13] = test system: Serratia marcescens; experiment: In vitro antimicrobial activity, agar dilution MIC
Method: as §1, §2, §3, §4, §5, §6, §7, §8

[14] = test system: Staphylococcus aureus; experiment: In vitro antimicrobial activity, agar dilution MIC
Method: as §1, §2, §3, §4, §5, §6, §7, §8

[15] = test system: Staphylococcus epidermidis; experiment: In vitro antimicrobial activity, agar dilution MIC
Method: as §1, §2, §3, §4, §5, §6, §7, §8

[16] = test system: Staphylococcus haemolyticus; experiment: In vitro antimicrobial activity, agar dilution MIC
Method: as §1, §2, §3, §4, §5, §6, §7, §8

[17] = test system: Stenotrophomonas maltophilia; experiment: In vitro antimicrobial activity, agar dilution MIC
Method: as §1, §2, §3, §4, §5, §6, §7, §8

[18] = test system: Streptococcus mitis; experiment: In vitro antimicrobial activity, agar dilution MIC
Method: as §1, §2, §3, §4, §5, §6, §7, §8

[19] = test system: Streptococcus pneumoniae; experiment: In vitro antimicrobial activity, agar dilution MIC
Method: as §1, §2, §3, §4, §5, §6, §7, §8

Compound: Nc1c(F)c(N2CC3CCCNC3C2)c(F)c2c1c(=O)c(C(=O)O)cn2C1CC1 (stereo not drawn) [Compound 3]
- antimicrobial activity compared to moxifloxacin (in words) [1]: showed increased antimicrobial activity against most microorganisms

Compound: moxifloxacin [reference compound]
- Minimal Inhibitory Concentration (MIC) [2]: ≦0.25
- Minimal Inhibitory Concentration (MIC) ([3]; test organism 27, Acinetobacter junii): ≦0.25
- Minimal Inhibitory Concentration (MIC) ([3]; test organism 28, Acinetobacter junii): 0.25
- Minimal Inhibitory Concentration (MIC) ([3]; test organism 29, Acinetobacter junii): >4
- Minimal Inhibitory Concentration (MIC) ([4]; test organism 24, Corynebacterium amycolatum): 0.03
- Minimal Inhibitory Concentration (MIC) ([4]; test organism 25, Corynebacterium amycolatum): >4
- Minimal Inhibitory Concentration (MIC) [5]: >4
- Minimal Inhibitory Concentration (MIC) ([6]; test organism 15, Enterococcus faecalis): 0.5
- Minimal Inhibitory Concentration (MIC) ([6]; test organism 16, Enterococcus faecalis): ≦0.25
- Minimal Inhibitory Concentration (MIC) ([6]; test organism 17, Enterococcus faecalis): >4
- Minimal Inhibitory Concentration (MIC) ([6]; test organism 18, Enterococcus faecalis): >2
- Minimal Inhibitory Concentration (MIC) ([7]; test organism 32, Escherichia coli): 0.125
- Minimal Inhibitory Concentration (MIC) ([7]; test organism 33, Escherichia coli): ≦0.25
- Minimal Inhibitory Concentration (MIC) ([7]; test organism 34, Escherichia coli): >4
- Minimal Inhibitory Concentration (MIC) ([8]; test organism 3, MRSA): 2
- Minimal Inhibitory Concentration (MIC) ([8]; test organism 4, MRSA): 4
- Minimal Inhibitory Concentration (MIC) ([8]; test organism 5, MRSA): >2
- Minimal Inhibitory Concentration (MIC) ([9]; test organism 9, MRSE): >2
- Minimal Inhibitory Concentration (MIC) ([9]; test organism 10, MRSE): >2
- Minimal Inhibitory Concentration (MIC) ([9]; test organism 11, MRSE): >4
- Minimal Inhibitory Concentration (MIC) [10]: >4
- Minimal Inhibitory Concentration (MIC) ([11]; test organism 35, Morganella morganii): 0.5
- Minimal Inhibitory Concentration (MIC) ([11]; test organism 36, Morganella morganii): 4
- Minimal Inhibitory Concentration (MIC) ([12]; test organism 37, Pseudomonas aeruginosa): >4
- Minimal Inhibitory Concentration (MIC) ([12]; test organism 38, Pseudomonas aeruginosa): 4
- Minimal Inhibitory Concentration (MIC) ([13]; test organism 39, Serratia marcescens): 2
- Minimal Inhibitory Concentration (MIC) ([13]; test organism 40, Serratia marcescens): 2
- Minimal Inhibitory Concentration (MIC) ([14]; test organism 1, Staphylococcus aureus): 0.06
- Minimal Inhibitory Concentration (MIC) ([14]; test organism 2, Staphylococcus aureus): ≦0.25
- Minimal Inhibitory Concentration (MIC) ([15]; test organism 7, Staphylococcus epidermidis): 0.06
- Minimal Inhibitory Concentration (MIC) ([15]; test organism 8, Staphylococcus epidermidis): 1
- Minimal Inhibitory Concentration (MIC) ([16]; test organism 12, Staphylococcus haemolyticus): 0.5
- Minimal Inhibitory Concentration (MIC) ([16]; test organism 13, Staphylococcus haemolyticus): 2
- Minimal Inhibitory Concentration (MIC) ([16]; test organism 14, Staphylococcus haemolyticus): >4
- Minimal Inhibitory Concentration (MIC) ([17]; test organism 41, Stenotrophomonas maltophilia): >4
- Minimal Inhibitory Concentration (MIC) ([17]; test organism 42, Stenotrophomonas maltophilia): 0.125
- Minimal Inhibitory Concentration (MIC) ([18]; test organism 21, Streptococcus mitis): ≦0.25
- Minimal Inhibitory Concentration (MIC) ([18]; test organism 22, Streptococcus mitis): 0.125
- Minimal Inhibitory Concentration (MIC) ([18]; test organism 23, Streptococcus mitis): 4
- Minimal Inhibitory Concentration (MIC) ([19]; test organism 19, Streptococcus pneumoniae): 0.25
- Minimal Inhibitory Concentration (MIC) ([19]; test organism 20, Streptococcus pneumoniae): ≦0.25
